Test results as given in PubChem BioAssay (NCI).
“And” between values parts separate entries of the source, which are not always exact repeats. Identical values can stand only once.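 All cell lines were grown in 96-well plates and treated with compound for 48 hours. GI50 marks 50% less growth. TGI denotes the concentration required for complete inhibition of growth.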

Assays:
Experiment in all cases: growth of human tumour cells (NCI), 48 h
CCRF-CEM leukemia = tested on: CCRF-CEM leukemia
CAKI-1 renal = tested on: CAKI-1 renal
TK-10 renal = tested on: TK-10 renal
HOP-18 NSCLC = tested on: HOP-18 NSCLC
NCI-H23 lung = tested on: NCI-H23 lung
SW-620 colon = tested on: SW-620 colon
SR leukemia = tested on: SR leukemia
SK-MEL-5 melanoma = tested on: SK-MEL-5 melanoma
786-0 renal = tested on: 786-0 renal
NCI-H226 lung = tested on: NCI-H226 lung
KM12 colon = tested on: KM12 colon
SF-295 CNS = tested on: SF-295 CNS
ACHN renal = tested on: ACHN renal
KM20L2 colon = tested on: KM20L2 colon
SN12C renal = tested on: SN12C renal
LOX IMVI melanoma = tested on: LOX IMVI melanoma
OVCAR-5 ovarian = tested on: OVCAR-5 ovarian
M14 melanoma = tested on: M14 melanoma
K-562 leukemia = tested on: K-562 leukemia
SNB-78 CNS = tested on: SNB-78 CNS
A498 renal = tested on: A498 renal
MOLT-4 leukemia = tested on: MOLT-4 leukemia
HT29 colon = tested on: HT29 colon
COLO 205 colon = tested on: COLO 205 colon
SF-539 CNS = tested on: SF-539 CNS
MALME-3M melanoma = tested on: MALME-3M melanoma
SK-MEL-2 melanoma = tested on: SK-MEL-2 melanoma
OVCAR-8 ovarian = tested on: OVCAR-8 ovarian
OVCAR-4 ovarian = tested on: OVCAR-4 ovarian
SK-MEL-28 melanoma = tested on: SK-MEL-28 melanoma
UACC-62 melanoma = tested on: UACC-62 melanoma
RXF 393 renal = tested on: RXF 393 renal
OVCAR-3 ovarian = tested on: OVCAR-3 ovarian
A549 NSCLC = tested on: A549 NSCLC
SK-OV-3 ovarian = tested on: SK-OV-3 ovarian
SNB-19 CNS = tested on: SNB-19 CNS
SF-268 CNS = tested on: SF-268 CNS
RPMI-8226 leukemia = tested on: RPMI-8226 leukemia
HCC-2998 colon = tested on: HCC-2998 colon
HOP-62 NSCLC = tested on: HOP-62 NSCLC
U251 CNS = tested on: U251 CNS
EKVX NSCLC = tested on: EKVX NSCLC
IGROV1 ovarian = tested on: IGROV1 ovarian
HL-60(TB) leukemia = tested on: HL-60(TB) leukemia
HCT-15 colon = tested on: HCT-15 colon
NCI-H460 lung = tested on: NCI-H460 lung
UACC-257 melanoma = tested on: UACC-257 melanoma
LXFL 529 NSCLC = tested on: LXFL 529 NSCLC
M19-MEL melanoma = tested on: M19-MEL melanoma
SNB-75 CNS = tested on: SNB-75 CNS
HCT-116 colon = tested on: HCT-116 colon
HOP-92 NSCLC = tested on: HOP-92 NSCLC
UO-31 renal = tested on: UO-31 renal
DLD-1 colon = tested on: DLD-1 colon
XF 498 CNS = tested on: XF 498 CNS

CCCCCCCCCCCCCCCC(=O)N[C@H]1CCc2cc(OC)c(OC)c(OC)c2-c2ccc(SC)c(=O)cc21
GI50 (CCRF-CEM leukemia): 2.68 µM | TGI (CCRF-CEM leukemia): 11.4 µM and 15.3 µM | GI50 (CAKI-1 renal): 6.7 µM | TGI (CAKI-1 renal): 80 µM and 21.8 µM | GI50 (TK-10 renal): 27.9 µM | TGI (TK-10 renal): 35.8 µM and > 100 µM | TGI (HOP-18 NSCLC): 36.9 µM | GI50 (NCI-H23 lung): 1.25 µM | TGI (NCI-H23 lung): 1.96 µM and 3.85 µM | GI50 (SW-620 colon): 2.1 µM | TGI (SW-620 colon): 15.6 µM and 10.8 µM | GI50 (SR leukemia): 0.597 µM | TGI (SR leukemia): 8.28 µM and 13.2 µM | GI50 (SK-MEL-5 melanoma): 1.52 µM | TGI (SK-MEL-5 melanoma): 5.73 µM and 4.4 µM | GI50 (786-0 renal): 3.31 µM | TGI (786-0 renal): 8.24 µM and 12.9 µM | GI50 (NCI-H226 lung): 2.63 µM | TGI (NCI-H226 lung): 0.656 µM and 5.65 µM | GI50 (KM12 colon): 0.845 µM | TGI (KM12 colon): 8.4 µM and 3.73 µM | GI50 (SF-295 CNS): 1.12 µM | TGI (SF-295 CNS): 8.89 µM and 5.44 µM | GI50 (ACHN renal): 3.88 µM | TGI (ACHN renal): 22.4 µM and 19.7 µM | GI50 (KM20L2 colon): 1.59 µM | TGI (KM20L2 colon): 0.344 µM and 3.4 µM | GI50 (SN12C renal): 2.84 µM | TGI (SN12C renal): 9.08 µM and 10.3 µM | TGI (LOX IMVI melanoma): 11.9 µM | GI50 (OVCAR-5 ovarian): 19.7 µM | TGI (OVCAR-5 ovarian): 41.1 µM and 36.8 µM | GI50 (M14 melanoma): 0.386 µM | TGI (M14 melanoma): 2.86 µM and 1.89 µM | GI50 (K-562 leukemia): 0.709 µM | TGI (K-562 leukemia): 11.1 µM and 14.5 µM | GI50 (SNB-78 CNS): 0.669 µM | TGI (SNB-78 CNS): 80 µM and 25.7 µM | GI50 (A498 renal): 2.27 µM | TGI (A498 renal): 3.64 µM and 5.35 µM | GI50 (MOLT-4 leukemia): 3.21 µM | TGI (MOLT-4 leukemia): 19.6 µM and 13.1 µM | GI50 (HT29 colon): 1.81 µM | TGI (HT29 colon): 0.853 µM and 4.66 µM | TGI (COLO 205 colon): 0.494 µM and 0.391 µM | GI50 (SF-539 CNS): 1.24 µM | TGI (SF-539 CNS): 2.08 µM and 3.64 µM | GI50 (MALME-3M melanoma): 0.345 µM | TGI (MALME-3M melanoma): 16.3 µM and 1.67 µM | TGI (SK-MEL-2 melanoma): 4.46 µM | GI50 (OVCAR-8 ovarian): 3.31 µM | TGI (OVCAR-8 ovarian): 8.92 µM and 12.6 µM | GI50 (OVCAR-4 ovarian): 8.65 µM | TGI (OVCAR-4 ovarian): 80 µM and > 100 µM | TGI (SK-MEL-28 melanoma): 24.3 µM and 17.9 µM | GI50 (UACC-62 melanoma): 1.21 µM | TGI (UACC-62 melanoma): 13.4 µM and 11.8 µM | TGI (RXF 393 renal): 14.8 µM | GI50 (OVCAR-3 ovarian): 0.53 µM | TGI (OVCAR-3 ovarian): 0.642 µM and 3.01 µM | GI50 (A549 NSCLC): 3.63 µM | TGI (A549 NSCLC): 13.1 µM and 14.4 µM | TGI (SK-OV-3 ovarian): 6.19 µM | GI50 (SNB-19 CNS): 2.46 µM | TGI (SNB-19 CNS): 9.27 µM and 8.35 µM | GI50 (SF-268 CNS): 1.63 µM | TGI (SF-268 CNS): 7.59 µM and 10.9 µM | TGI (RPMI-8226 leukemia): 22.7 µM | GI50 (HCC-2998 colon): 2.42 µM | TGI (HCC-2998 colon): 1.87 µM and 6.82 µM | GI50 (HOP-62 NSCLC): 2.13 µM | TGI (HOP-62 NSCLC): 62.6 µM and 18.2 µM | GI50 (U251 CNS): 2.64 µM | TGI (U251 CNS): 8.6 µM and 9.32 µM | GI50 (EKVX NSCLC): 4.22 µM | TGI (IGROV1 ovarian): 39 µM and 10.9 µM | GI50 (HL-60(TB) leukemia): 2.01 µM | TGI (HL-60(TB) leukemia): 1.35 µM and 6.82 µM | GI50 (HCT-15 colon): 1.54 µM | TGI (HCT-15 colon): 5.01 µM and 4.04 µM | GI50 (NCI-H460 lung): 2.97 µM | TGI (NCI-H460 lung): 2.15 µM and 10.1 µM | GI50 (UACC-257 melanoma): 0.699 µM | TGI (UACC-257 melanoma): 13.1 µM and 26.4 µM | GI50 (LXFL 529 NSCLC): 1.55 µM | TGI (LXFL 529 NSCLC): 9.54 µM and 4.92 µM | GI50 (M19-MEL melanoma): 3.15 µM | TGI (M19-MEL melanoma): 13.6 µM and 13.7 µM | GI50 (SNB-75 CNS): 2.96 µM | GI50 (HCT-116 colon): 1.04 µM | TGI (HCT-116 colon): 3.67 µM and 3.49 µM | GI50 (HOP-92 NSCLC): 0.564 µM | TGI (HOP-92 NSCLC): 11.3 µM and 5.32 µM | TGI (UO-31 renal): 18.4 µM | GI50 (DLD-1 colon): 0.709 µM | TGI (DLD-1 colon): 10.6 µM and 12.4 µM | GI50 (XF 498 CNS): 2.18 µM | TGI (XF 498 CNS): 8.5 µM and 8.63 µM
